Reference: patent US8178506B2, “Oligomeric compounds and compositions for use in modulation of small non-coding RNAs” (Regulus Therapeutics Inc., priority 2003, dated 2012)
In the oligonucleotide strings, read from the 5' end, every base follows the letter of its sugar. An asterisk marks phosphorothioate; unmarked linkages are phosphodiester. Other units and linkages are bracketed, terminal groups are in braces. A string of capitals states the bases alone. e = 2'-O-(2-methoxyethyl) (MOE); [5mC] = 5-methylcytosine

How the values were obtained:
[1] = system: aP2; assay: aP2 mRNA expression in adipocytes (real-time PCR); type: cell-based, human; settings: for AP2 (mRNA expression): adipocytes, 250 nM oligomeric compound, day nine post-transfection, relative to control (1.0), Table 15; for aP2 mRNA: Table 75
[2] = system: HuVECs; assay: Endothelial tube formation assay in HuVECs; settings: 75 nM oligomeric compound, Table 56
[3] = system: adipocytes; assay: Triglyceride accumulation assay in adipocytes; type: cell-based, human
[4] = system: PPARγ; assay: PPARγ mRNA expression in adipocytes (real-time PCR); type: cell-based, human; settings: for PPAR gamma (mRNA expression): adipocytes, 250 nM oligomeric compound, day nine post-transfection, relative to control (1.0), Table 15; for PPAR gamma mRNA: differentiating adipocytes transfected with oligomeric compound
[5] = system: HSL; assay: HSL mRNA expression in adipocytes (real-time PCR); type: cell-based, human; settings: for HSL (mRNA expression): adipocytes, 250 nM oligomeric compound, day nine post-transfection, relative to control (1.0), Table 15; for HSL mRNA: differentiating adipocytes transfected with oligomeric compound
[6] = system: Glut4; assay: Glut4 mRNA expression in adipocytes (real-time PCR); type: cell-based, human; settings: for Glut4 (mRNA expression): adipocytes, 250 nM oligomeric compound, day nine post-transfection, relative to control (1.0), Table 15; for GLUT4 mRNA: differentiating adipocytes transfected with oligomeric compound
[7] = adipocytes, 250 nM oligomeric compound, relative to control (1.0), Table 15
[8] = differentiating adipocytes transfected with oligomeric compound
[9] = differentiating adipocytes transfected with oligomeric compound, Table 75

Substance | AP2 (mRNA expression) [1] | % Activity Relative to UTC (tube formation) [2] | TG (triglyceride accumulation) [3, 7] | PPAR gamma (mRNA expression) [4] | HSL (mRNA expression) [5] | Glut4 (mRNA expression) [6] | AP2 mRNA [1, 8] | TG (triglyceride accumulation) [3, 8] | PPAR gamma mRNA [4] | HSL mRNA [5] | GLUT4 mRNA [6] | aP2 mRNA [1, 8] | TG (triglyceride accumulation) [3, 9] | PPAR gamma mRNA ([4]; Table 75) | HSL mRNA ([5]; Table 75) | GLUT4 mRNA ([6]; Table 75)
327876 (antisense eA*eA*e[5mC]*eA*e[5mC]*eT*eG*eA*eT*eT*eT*e[5mC]*eA*eA*eA*eT*eG*eG*eT*eG*e[5mC]*eT*eA) [compound 327876] | 0.75 | 50.0% | 0.47 | 0.57 | 0.47 | 0.36 | – | – | – | – | – | – | – | – | – | –
327877 (antisense e[5mC]*eG*e[5mC]*e[5mC]*eA*eA*eT*eA*eT*eT*eT*eA*e[5mC]*eG*eT*eG*e[5mC]*eT*eG*e[5mC]*eT*eA) [compound 327877] | – | 78.6% | – | – | – | – | 77 percentage of untreated control (UTC) | 109 percentage of untreated control (UTC) | 85 percentage of untreated control (UTC) | 82 percentage of untreated control (UTC) | 119 percentage of untreated control (UTC) | – | – | – | – | –
327878 (antisense e[5mC]*eT*eA*eG*eT*eG*eG*eT*e[5mC]*e[5mC]*eT*eA*eA*eA*e[5mC]*eA*eT*eT*eT*e[5mC]*eA*e[5mC]) [compound 327878] | 0.85 | 57.1% | 0.65 | 0.97 | 0.93 | 0.69 | – | – | – | – | – | – | – | – | – | –
327880 (antisense eA*e[5mC]*eA*eA*eA*eT*eT*e[5mC]*eG*eG*eT*eT*e[5mC]*eT*eA*e[5mC]*eA*eG*eG*eG*eT*eA) [compound 327880] | 0.97 | 57.1% | 0.52 | 0.53 | 0.80 | 1.11 | – | – | – | – | – | – | – | – | – | –
327885 (antisense eA*e[5mC]*eT*eA*e[5mC]*e[5mC]*eT*eG*e[5mC]*eA*e[5mC]*eT*eG*eT*eA*eA*eG*e[5mC]*eA*e[5mC]*eT*eT*eT*eG) [compound 327885] | – | 50.0% | – | – | – | – | – | – | – | – | – | 69 percentage of untreated control (UTC) | 29 percentage of untreated control (UTC) | 59 percentage of untreated control (UTC) | 57 percentage of untreated control (UTC) | 40 percentage of untreated control (UTC)
327886 (antisense e[5mC]*eG*e[5mC]*eG*eT*eA*e[5mC]*e[5mC]*eA*eA*eA*eA*eG*eT*eA*eA*eT*eA*eA*eT*eG) [compound 327886] | – | 42.9% | – | – | – | – | – | – | – | – | – | 19 percentage of untreated control (UTC) | 12 percentage of untreated control (UTC) | 25 percentage of untreated control (UTC) | 22 percentage of untreated control (UTC) | 13 percentage of untreated control (UTC)
327887 (antisense eG*e[5mC]*eG*eA*e[5mC]*e[5mC]*eA*eT*eG*eG*e[5mC]*eT*eG*eT*eA*eG*eA*e[5mC]*eT*eG*eT*eT*eA) [compound 327887] | – | 57.1% | – | – | – | – | – | – | – | – | – | 60 percentage of untreated control (UTC) | 54 percentage of untreated control (UTC) | 81 percentage of untreated control (UTC) | 53 percentage of untreated control (UTC) | 43 percentage of untreated control (UTC)
